Patent publication US8183262B2, “Pyridine derivatives as mGluR2 antagonists” (Hoffmann-La Roche Inc., priority 2007, dated 2012)

SMILES | melting point
NS(=O)(=O)c1cccc(-c2cn(-c3nc(-c4ccc(F)c(F)c4)cc(C(F)(F)F)n3)cn2)c1 [Example 396, 3-{1-[4-(3,4-Difluoro-phenyl)-6-trifluoromethyl-pyrimidin-2-yl]-1H-imidazol-4-yl}-benzenesulfonamide] | 241.5 °C
NS(=O)(=O)c1ccc(-c2cc(-c3nc(-c4ccc(F)cc4)cc(C(F)(F)F)n3)ccn2)s1 [Example 397, 5-{4-[4-(4-Fluoro-phenyl)-6-trifluoromethyl-pyrimidin-2-yl]-pyridin-2-yl}-thiophene-2-sulfonic acid amide] | 282 °C
NS(=O)(=O)c1cccc(-c2cc(-c3nc(-c4ccc(F)cc4)cc(C(F)(F)F)n3)ccn2)c1 [Example 398, 3-{4-[4-(4-Fluoro-phenyl)-6-trifluoromethyl-pyrimidin-2-yl]-pyridin-2-yl}-benzenesulfonamide] | 239.5 °C
NS(=O)(=O)c1ccc(-c2cc(-c3nc(-c4ccc(F)c(F)c4)cc(C(F)(F)F)n3)ccn2)s1 [Example 399, 5-{4-[4-(3,4-Difluoro-phenyl)-6-trifluoromethyl-pyrimidin-2-yl]-pyridin-2-yl}-thiophene-2-sulfonic acid amide] | 281 °C
NS(=O)(=O)c1cccc(-c2cc(-c3nc(-c4ccc(F)c(F)c4)cc(C(F)(F)F)n3)ccn2)c1 [Example 400, 3-{4-[4-(3,4-Difluoro-phenyl)-6-trifluoromethyl-pyrimidin-2-yl]-pyridin-2-yl}-benzenesulfonamide] | 233.5 °C
CN(C)S(=O)(=O)c1cccc(-c2cc(-c3nc(-c4ccc(C(F)(F)F)cc4)cc(C(F)(F)F)n3)ccn2)c1 [Example 401, N,N-Dimethyl-3-{4-[4-trifluoromethyl-6-(4-trifluoromethyl-phenyl)-pyrimidin-2-yl]-pyridin-2-yl}-benzenesulfonamide] | 225 °C
CNS(=O)(=O)c1cccc(-c2cc(-c3nc(-c4ccc(C(F)(F)F)cc4)cc(C(F)(F)F)n3)ccn2)c1 [Example 402, N-Methyl-3-{4-[4-trifluoromethyl-6-(4-trifluoromethyl-phenyl)-pyrimidin-2-yl]-pyridin-2-yl}-benzenesulfonamide] | 174 °C
CC(C)CN(C)S(=O)(=O)c1cccc(-c2cc(-c3nc(-c4ccc(C(F)(F)F)cc4)cc(C(F)(F)F)n3)ccn2)c1 [Example 403, N-Isobutyl-N-methyl-3-{4-[4-trifluoromethyl-6-(4-trifluoromethyl-phenyl)-pyrimidin-2-yl]-pyridin-2-yl}-benzenesulfonamide] | 144 °C
CCCN(C)S(=O)(=O)c1cccc(-c2cc(-c3nc(-c4ccc(C(F)(F)F)cc4)cc(C(F)(F)F)n3)ccn2)c1 [Example 404, N-Methyl-N-propyl-3-{4-[4-trifluoromethyl-6-(4-trifluoromethyl-phenyl)-pyrimidin-2-yl]-pyridin-2-yl}-benzenesulfonamide] | 144 °C
O=S(=O)(NCc1ccccc1)c1cccc(-c2cc(-c3nc(-c4ccc(C(F)(F)F)cc4)cc(C(F)(F)F)n3)ccn2)c1 [Example 405, N-Benzyl-3-{4-[4-trifluoromethyl-6-(4-trifluoromethyl-phenyl)-pyrimidin-2-yl]-pyridin-2-yl}-benzenesulfonamide] | 202.5 °C
O=S(=O)(NCCc1ccccc1)c1cccc(-c2cc(-c3nc(-c4ccc(C(F)(F)F)cc4)cc(C(F)(F)F)n3)ccn2)c1 [Example 406, N-Phenethyl-3-{4-[4-trifluoromethyl-6-(4-trifluoromethyl-phenyl)-pyrimidin-2-yl]-pyridin-2-yl}-benzenesulfonamide] | 201 °C
O=S(=O)(NCC1CC1)c1cccc(-c2cc(-c3nc(-c4ccc(C(F)(F)F)cc4)cc(C(F)(F)F)n3)ccn2)c1 [Example 408, N-Cyclopropylmethyl-3-{4-[4-trifluoromethyl-6-(4-trifluoromethyl-phenyl)-pyrimidin-2-yl]-pyridin-2-yl}-benzenesulfonamide] | 133.5 °C
O=S(=O)(NC1CC1)c1cccc(-c2cc(-c3nc(-c4ccc(C(F)(F)F)cc4)cc(C(F)(F)F)n3)ccn2)c1 [Example 409, N-Cyclopropyl-3-{4-[4-trifluoromethyl-6-(4-trifluoromethyl-phenyl)-pyrimidin-2-yl]-pyridin-2-yl}-benzenesulfonamide] | 195.5 °C
NS(=O)(=O)c1cccc(-c2cccc(-c3nc(-c4ccc(Cl)cc4Cl)cc(C(F)(F)F)n3)c2)c1 [Example 410, 3′-[4-(2,4-Dichloro-phenyl)-6-trifluoromethyl-pyrimidin-2-yl]-biphenyl-3-sulfonic acid amide] | 202 °C
NS(=O)(=O)c1ccc(-c2cccc(-c3nc(-c4ccc(Cl)cc4Cl)cc(C(F)(F)F)n3)c2)s1 [Example 411, 5-{3-[4-(2,4-Dichloro-phenyl)-6-trifluoromethyl-pyrimidin-2-yl]-phenyl}-thiophene-2-sulfonic acid amide] | 237.5 °C
NS(=O)(=O)c1cccc(-c2cccc(-c3nc(-c4ccc(C(F)(F)F)cc4F)cc(C(F)(F)F)n3)c2)c1 [Example 412, 3′-[4-(2-Fluoro-4-trifluoromethyl-phenyl)-6-trifluoromethyl-pyrimidin-2-yl]-biphenyl-3-sulfonic acid amide] | 224.5 °C

SMILES | melting point
NS(=O)(=O)c1ccc(-c2cccc(-c3nc(-c4ccc(C(F)(F)F)cc4F)cc(C(F)(F)F)n3)c2)s1 [Example 413, 5-{3-[4-(2-Fluoro-4-trifluoromethyl-phenyl)-6-trifluoromethyl-pyrimidin-2-yl]-phenyl}-thiophene-2-sulfonic acid amide] | 192 °C
Cc1cc(-c2cc(C(F)(F)F)nc(-c3ccnc(-c4ccc(S(N)(=O)=O)s4)c3)n2)ccc1Cl [Example 414, 5-{4-[4-(4-Chloro-3-methyl-phenyl)-6-trifluoromethyl-pyrimidin-2-yl]-pyridin-2-yl}-thiophene-2-sulfonic acid amide] | 280 °C
Cc1cc(-c2cc(C(F)(F)F)nc(-c3ccnc(-c4cccc(S(N)(=O)=O)c4)c3)n2)ccc1Cl [Example 415, 3-{4-[4-(4-Chloro-3-methyl-phenyl)-6-trifluoromethyl-pyrimidin-2-yl]-pyridin-2-yl}-benzenesulfonamide] | 234 °C
Cc1cc(-c2ccc(C(F)(F)F)c(C)c2)nc(-c2cccc(-c3cccc(S(N)(=O)=O)c3)c2)n1 [Example 416, 3′-[4-Methyl-6-(3-methyl-4-trifluoromethyl-phenyl)-pyrimidin-2-yl]-biphenyl-3-sulfonic acid amide] | 222.5 °C
Cc1cc(-c2ccc(C(F)(F)F)c(C)c2)nc(-c2cccc(-c3ccc(S(N)(=O)=O)s3)c2)n1 [Example 417, 5-{3-[4-Methyl-6-(3-methyl-4-trifluoromethyl-phenyl)-pyrimidin-2-yl]-phenyl}-thiophene-2-sulfonic acid amide] | 242 °C
Cc1cc(-c2ccc(C(F)(F)F)cc2)nc(-c2cccc(-c3cccc(S(=O)(=O)NC(C)(C)C)c3)n2)n1 [Example 418, N-tert-Butyl-3-{6-[4-methyl-6-(4-trifluoromethyl-phenyl)-pyrimidin-2-yl]-pyridin-2-yl}-benzenesulfonamide] | > 250 °C
Cc1cc(-c2ccc(C(F)(F)F)cc2)nc(-c2cccc(-c3cccc(S(N)(=O)=O)c3)n2)n1 [Example 419, 3-{6-[4-Methyl-6-(4-trifluoromethyl-phenyl)-pyrimidin-2-yl]-pyridin-2-yl}-benzenesulfonamide] | 239 °C (dec.)
CNS(=O)(=O)c1cccc(-c2cccc(-c3cc(-c4ccc(C(F)(F)F)cc4)cc(C)n3)n2)c1 [Example 422, N-Methyl-3-[6′-methyl-4′-(4-trifluoromethyl-phenyl)-[2,2′]bipyridinyl-6-yl]-benzenesulfonamide] | 176 °C
Cc1cc(-c2ccc(C(F)(F)F)cc2)cc(-c2cccc(-c3cccc(S(=O)(=O)N(C)C)c3)n2)n1 [Example 423, N,N-Dimethyl-3-[6′-methyl-4′-(4-trifluoromethyl-phenyl)-[2,2′]bipyridinyl-6-yl]-benzenesulfonamide] | 155 °C
Cc1cc(-c2ccc(C(F)(F)F)cc2)cc(-c2cccc(-c3cccc(S(=O)(=O)NC4CC4)c3)n2)n1 [Example 424, N-Cyclopropyl-3-[6′-methyl-4′-(4-trifluoromethyl-phenyl)-[2,2′]bipyridinyl-6-yl]-benzenesulfonamide] | 150 °C
Cc1cc(-c2ccc(C(F)(F)F)cc2)cc(-c2cccc(-c3cccc(S(=O)(=O)N(C)C4CC4)c3)n2)n1 [Example 425, N-Cyclopropyl-N-methyl-3-[6′-methyl-4′-(4-trifluoromethyl-phenyl)-[2,2′]bipyridinyl-6-yl]-benzenesulfonamide] | 157 °C
Cc1cc(-c2ccc(C(F)(F)F)cc2)cc(-c2cccc(-c3cccc(S(=O)(=O)N4CCC4)c3)n2)n1 [Example 426, 6′-[3-(Azetidine-1-sulfonyl)-phenyl]-6-methyl-4-(4-trifluoromethyl-phenyl)-[2,2′]bipyridinyl] | 158 °C
Cc1cc(-c2ccc(C(F)(F)F)cc2)cc(-c2cccc(-c3cccc(S(=O)(=O)N4CCC(O)CC4)c3)n2)n1 [Example 427, 1-{3-[6′-Methyl-4′-(4-trifluoromethyl-phenyl)-[2,2′]bipyridinyl-6-yl]-benzenesulfonyl}-piperidin-4-ol] | 195 °C
Cc1cc(-c2ccc(C(F)(F)F)cc2)cc(-c2cccc(-c3cccc(S(=O)(=O)N4CC(O)C4)c3)n2)n1 [Example 428, 1-{3-[6′-Methyl-4′-(4-trifluoromethyl-phenyl)-[2,2′]bipyridinyl-6-yl]-benzenesulfonyl}-azetidin-3-ol] | 205 °C
COC1CCN(S(=O)(=O)c2cccc(-c3cccc(-c4cc(-c5ccc(C(F)(F)F)cc5)cc(C)n4)n3)c2)CC1 [Example 429, 6′-[3-(4-Methoxy-piperidine-1-sulfonyl)-phenyl]-6-methyl-4-(4-trifluoromethyl-phenyl)-[2,2′]bipyridinyl] | 107 °C
Cc1cc(-c2ccc(C(F)(F)F)cc2)cc(-c2cccc(-c3cccc(S(=O)(=O)NCc4ccccc4)c3)n2)n1 [Example 431, N-Benzyl-3-[6′-methyl-4′-(4-trifluoromethyl-phenyl)-[2,2′]bipyridinyl-6-yl]-benzenesulfonamide] | 168 °C
